Measurements from ChEMBL document CHEMBL1201862, “PubChem BioAssay data set” (2004).
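Results reflect a 48-hour exposure of cells in 96-well plates to compound at five concentrations. GI50: concentration for 50% inhibition of growth.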 Activity calls are given as the source filed them. Cut-off read from the data, not from the text of the source: active = GI50 up to about 1.1 µM and inactive = higher.

Assays:
Assay in all cases: NCI-60 cell line screen, 48 h
SK-MEL-2 = tested on: SK-MEL-2
UO-31 = tested on: UO-31
SF-268 = tested on: SF-268
KM12 = tested on: KM12
NCI-H23 = tested on: NCI-H23
HOP-92 = tested on: HOP-92
786-0 = tested on: 786-0
EKVX = tested on: EKVX
HOP-62 = tested on: HOP-62
SF-539 = tested on: SF-539
ACHN = tested on: ACHN
NCI-H460 = tested on: NCI-H460
IGROV-1 = tested on: IGROV-1
NCI-H226 = tested on: NCI-H226
HCT-15 = tested on: HCT-15
NCI-H522 = tested on: NCI-H522
CAKI-1 = tested on: CAKI-1
A498 = tested on: A498

## C=C1C2=C(CCCC2)C(=O)OC12CCCCC2
SK-MEL-2
  GI50: 70.3 µM (inactive)
UO-31
  GI50: 35.1 µM (inactive)
SF-268
  GI50: 86.1 µM (inactive)
KM12
  GI50: 85.5 µM (inactive)
NCI-H23
  GI50: 36.9 µM (inactive)
HOP-92
  GI50: 19.5 µM (inactive)
786-0
  GI50: > 100 µM (inactive)
EKVX
  GI50: 52.1 µM (inactive)
HOP-62
  GI50: > 100 µM (inactive)
SF-539
  GI50: > 100 µM (inactive)
ACHN
  GI50: 40.9 µM (inactive)
NCI-H460
  GI50: 91.4 µM (inactive)
IGROV-1
  GI50: 88.9 µM (inactive)
NCI-H226
  GI50: 93.8 µM (inactive)
HCT-15
  GI50: 60.1 µM
NCI-H522
  GI50: 35.5 µM (inactive)

## CC(C)(C)NNC(=O)/C(=C/c1ccc([N+](=O)[O-])cc1)NC(=O)c1ccccc1
CAKI-1
  GI50: > 100 µM (inactive)
SK-MEL-2
  GI50: > 100 µM (inactive)
UO-31
  GI50: > 100 µM (inactive)
SF-268
  GI50: 55.8 µM (inactive)
KM12
  GI50: > 100 µM (inactive)
NCI-H23
  GI50: > 100 µM (inactive)
HOP-92
  GI50: > 100 µM (inactive)
786-0
  GI50: 48.5 µM (inactive)
EKVX
  GI50: > 100 µM (inactive)
HOP-62
  GI50: > 100 µM (inactive)
SF-539
  GI50: > 100 µM (inactive)
ACHN
  GI50: > 100 µM (inactive)
NCI-H460
  GI50: 60.1 µM (inactive)
IGROV-1
  GI50: > 100 µM (inactive)
NCI-H226
  GI50: 24.2 µM (inactive)
HCT-15
  GI50: > 100 µM
A498
  GI50: > 100 µM (inactive)
NCI-H522
  GI50: 24.2 µM (inactive)

## O=C(OCCO)C1CC2CC1C1(C2)OCCO1 (centres undefined)
CAKI-1
  GI50: > 100 µM (inactive)
SK-MEL-2
  GI50: > 100 µM (inactive)
UO-31
  GI50: > 100 µM (inactive)
SF-268
  GI50: > 100 µM (inactive)
KM12
  GI50: > 100 µM (inactive)
NCI-H23
  GI50: > 100 µM (inactive)
HOP-92
  GI50: > 100 µM (inactive)
786-0
  GI50: > 100 µM (inactive)
EKVX
  GI50: > 100 µM (inactive)
HOP-62
  GI50: > 100 µM (inactive)
SF-539
  GI50: > 100 µM (inactive)
ACHN
  GI50: > 100 µM (inactive)
NCI-H460
  GI50: > 100 µM (inactive)
IGROV-1
  GI50: > 100 µM (inactive)
NCI-H226
  GI50: > 100 µM (inactive)
A498
  GI50: > 100 µM (inactive)
NCI-H522
  GI50: > 100 µM (inactive)

## C/C(=N/Nc1ccc([N+](=O)[O-])cc1[N+](=O)[O-])C(CC(C(=O)Nc1ccccc1C)/C(C)=N\Nc1ccc([N+](=O)[O-])cc1[N+](=O)[O-])C(=O)Nc1ccccc1C (centres undefined)
CAKI-1
  GI50: 14.2 µM (inactive)
SK-MEL-2
  GI50: 13.3 µM (inactive)
UO-31
  GI50: 11.5 µM (inactive)
SF-268
  GI50: 7.67 µM (inactive)
KM12
  GI50: 15.3 µM (inactive)
NCI-H23
  GI50: 11.3 µM (inactive)
HOP-92
  GI50: 7.08 µM (inactive)
786-0
  GI50: 17.9 µM (inactive)
EKVX
  GI50: 18.2 µM (inactive)
HOP-62
  GI50: 11.9 µM (inactive)
SF-539
  GI50: 13 µM (inactive)
ACHN
  GI50: 19.7 µM (inactive)
NCI-H460
  GI50: 12.5 µM (inactive)
IGROV-1
  GI50: 15.8 µM (inactive)
NCI-H226
  GI50: 6.65 µM (inactive)
HCT-15
  GI50: 32.9 µM
A498
  GI50: 14.9 µM (inactive)
NCI-H522
  GI50: 0.424 µM (active)

## N#CCC(=O)N1CCCCCCC1
CAKI-1
  GI50: > 100 µM (inactive)
SK-MEL-2
  GI50: > 100 µM (inactive)
UO-31
  GI50: > 100 µM (inactive)
SF-268
  GI50: > 100 µM (inactive)
KM12
  GI50: 76.4 µM (inactive)
NCI-H23
  GI50: > 100 µM (inactive)
786-0
  GI50: > 100 µM (inactive)
EKVX
  GI50: > 100 µM (inactive)
HOP-62
  GI50: > 100 µM (inactive)
SF-539
  GI50: > 100 µM (inactive)
ACHN
  GI50: > 100 µM (inactive)
NCI-H460
  GI50: 42.7 µM (inactive)
IGROV-1
  GI50: > 100 µM (inactive)
HCT-15
  GI50: 16.8 µM
A498
  GI50: > 100 µM (inactive)

## O=C(COC(=O)c1cccc2c(=O)c3ccccc3[nH]c12)Nc1ccc(Cl)cc1
CAKI-1
  GI50: > 100 µM (inactive)
UO-31
  GI50: 9.64 µM (inactive)
SF-268
  GI50: > 100 µM (inactive)
KM12
  GI50: 28.9 µM (inactive)
NCI-H23
  GI50: 18.8 µM (inactive)
HOP-92
  GI50: 58.9 µM (inactive)
786-0
  GI50: 23.1 µM (inactive)
EKVX
  GI50: 8.28 µM (inactive)
HOP-62
  GI50: 22.1 µM (inactive)
SF-539
  GI50: 26.1 µM (inactive)
ACHN
  GI50: 32.8 µM (inactive)
NCI-H460
  GI50: 63.4 µM (inactive)
IGROV-1
  GI50: 70.6 µM (inactive)
NCI-H226
  GI50: 72.8 µM (inactive)
A498
  GI50: 7.96 µM (inactive)
NCI-H522
  GI50: 23.9 µM (inactive)

## O=C(NC12CC3CC(CC(F)(C3)C1)C2)c1ccccc1
SK-MEL-2
  GI50: > 100 µM (inactive)
UO-31
  GI50: 59.2 µM (inactive)
KM12
  GI50: > 100 µM (inactive)
NCI-H23
  GI50: > 100 µM (inactive)
HOP-92
  GI50: > 100 µM (inactive)
786-0
  GI50: > 100 µM (inactive)
EKVX
  GI50: > 100 µM (inactive)
HOP-62
  GI50: > 100 µM (inactive)
SF-539
  GI50: > 100 µM (inactive)
ACHN
  GI50: > 100 µM (inactive)
NCI-H460
  GI50: > 100 µM (inactive)
IGROV-1
  GI50: > 100 µM (inactive)
A498
  GI50: > 100 µM (inactive)
NCI-H522
  GI50: > 100 µM (inactive)

## COc1ccc(C(=O)C/C(=N/NC(N)=S)C(=O)Nc2ccccc2)cc1
CAKI-1
  GI50: > 100 µM (inactive)
SK-MEL-2
  GI50: > 100 µM (inactive)
UO-31
  GI50: > 100 µM (inactive)
SF-268
  GI50: > 100 µM (inactive)
KM12
  GI50: > 100 µM (inactive)
NCI-H23
  GI50: > 100 µM (inactive)
786-0
  GI50: > 100 µM (inactive)
EKVX
  GI50: > 100 µM (inactive)
SF-539
  GI50: > 100 µM (inactive)
ACHN
  GI50: > 100 µM (inactive)
NCI-H460
  GI50: > 100 µM (inactive)
IGROV-1
  GI50: > 100 µM (inactive)
NCI-H226
  GI50: > 100 µM (inactive)
HCT-15
  GI50: > 100 µM
A498
  GI50: > 100 µM (inactive)
